Molecules are shown by their SMILES. Values after ≈ are worked out from the molar mass of the structure shown. Structures can show the parent of a compound that is named as a salt.

What is called IC50 is the concentration that inhibits the measured activity by half. A higher IC50 goes with weaker potency. What is called MIC is the lowest concentration that inhibits growth of the organism. The term EC50 denotes the concentration at which the effect is half-maximal. A lower EC50 goes with greater potency. A word on the CC50: it is the concentration that lowers cell viability or growth by half. The low end stands for harm at low concentration, the high end for better tolerance by the cells.

In one data set the test system is Aspergillus fumigatus. In words: Antimicrobial activity against Aspergillus fumigatus ATCC 10894. It counts as functional, organism-based.
Data set [1] has as its system Human immunodeficiency virus 1. The data set is described as follows: Antiviral activity against HIV1 replication in human C8166 cells by ELISA. It counts as functional, organism-based. The conditions noted are these: Human immunodeficiency virus 1, C8166. A general note: In an ELISA, binding on a coated surface is turned into a signal by an enzyme label.
Data set [2] can be described thus: Cytotoxicity against human C8166 cells after 4 days by MTT assay. It counts as cell-based.

With `OC(Cn1cncn1)(Cn1cncn1)c1ccc(F)cc1F` [FLUCONAZOLE], in the data set with Aspergillus fumigatus, the IC50 was 7.35 µM and the MIC is 163 µM (≈ 50 µg/mL).
`CC(C)(C)NC(=O)[C@@H]1CN(Cc2cccnc2)CCN1C[C@@H](O)C[C@@H](Cc1ccccc1)C(=O)N[C@H]1c2ccccc2C[C@H]1O` [INDINAVIR SULFATE]: in data set [1], the EC50 amounted to 0.00881 µM.
As to `CC(C)=C/C=C1\C[C@H](O)[C@@H]2O[C@]2(CC=C(C)C)C1=O` [PESTALOFONE A], the half-maximal cytotoxic concentration (CC50) at 96 h in data set [2] was more than 200 µM. The molecule also showed an EC50 in data set [1] of 90.4 µM.
On the same counts, the results for `C=C(C)/C=C1/C(=C2\C[C@H](O)[C@@H]3O[C@]3(CC=C(C)C)[C@@H]2O)C=C(C)C[C@@]12C[C@H](O)[C@@H]1O[C@]1(CC=C(C)C)C2=O` [PESTALOFONE B] are more than 200 µM and 64 µM.
For the molecule `C=C(C)/C=C1/C(=C2\C[C@H](O)[C@@H]3O[C@]3(CC=C(C)C)C2=O)C=C(C)C[C@@]12C[C@H](O)[C@@H]1O[C@]1(CC=C(C)C)C2=O` [PESTALOFONE C], in the data set with Aspergillus fumigatus, the IC50 was found to be 1.1 µM and the minimum inhibitory concentration (MIC) worked out at 35.3 µM (≈ 18.4 µg/mL).
Regarding `COC(=O)c1cc(OC)cc2oc3c(CC(=O)[C@@]4(O)C[C@H](O)[C@@H]5O[C@]5(CC=C(C)C)[C@@H]4O)c(C)c(CC(C)=O)c(O)c3c(=O)c12` [PESTALOFONE E], in data set [2], the half-maximal cytotoxic concentration (CC50) at 96 h was more than 200 µM. The same molecule had an EC50 in data set [1] of 93.7 µM. Besides, in the data set on Aspergillus fumigatus, the IC50 amounted to 0.9 µM and the minimum inhibitory concentration (MIC) turned out to be 31.2 µM (≈ 19.5 µg/mL).

The record behind these values is ChEMBL document CHEMBL1140882, “Pestalofones A-E, bioactive cyclohexanone derivatives from the plant endophytic fungus Pestalotiopsis fici” (Bioorg Med Chem, 2009).
